Test results as given in PubChem BioAssay (NCI).
Where “and” joins values, the source holds several entries; their conditions need not be identical. Equal values may be shown once.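 How tested: cells in 96-well plates exposed to compound for 48 hours at five concentrations. Here, GI50 denotes the concentration required for 50% inhibition of growth. TGI marks complete inhibition of growth.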

Key:
Assay in all cases: NCI tumour cell line growth inhibition, 48 h
SK-MEL-2 melanoma = test system: SK-MEL-2 melanoma
SK-OV-3 ovarian = test system: SK-OV-3 ovarian
LOX IMVI melanoma = test system: LOX IMVI melanoma
A549 NSCLC = test system: A549 NSCLC
HCC-2998 colon = test system: HCC-2998 colon
CCRF-CEM leukemia = test system: CCRF-CEM leukemia
U251 CNS = test system: U251 CNS
COLO 205 colon = test system: COLO 205 colon
P388/ADR leukemia = test system: P388/ADR leukemia
UO-31 renal = test system: UO-31 renal
SN12K1 renal = test system: SN12K1 renal
RXF 393 renal = test system: RXF 393 renal
DLD-1 colon = test system: DLD-1 colon
SF-295 CNS = test system: SF-295 CNS
M19-MEL melanoma = test system: M19-MEL melanoma
DMS 273 small cell lung = test system: DMS 273 small cell lung
M14 melanoma = test system: M14 melanoma
A498 renal = test system: A498 renal
SW-620 colon = test system: SW-620 colon
MALME-3M melanoma = test system: MALME-3M melanoma
KM20L2 colon = test system: KM20L2 colon
SK-MEL-28 melanoma = test system: SK-MEL-28 melanoma
SR leukemia = test system: SR leukemia
HCT-15 colon = test system: HCT-15 colon
SK-MEL-5 melanoma = test system: SK-MEL-5 melanoma
HOP-92 NSCLC = test system: HOP-92 NSCLC
NCI-H23 lung = test system: NCI-H23 lung
LXFL 529 NSCLC = test system: LXFL 529 NSCLC
SNB-78 CNS = test system: SNB-78 CNS
OVCAR-5 ovarian = test system: OVCAR-5 ovarian
HOP-62 NSCLC = test system: HOP-62 NSCLC
SF-268 CNS = test system: SF-268 CNS
HT29 colon = test system: HT29 colon
NCI/ADR-RES ovarian = test system: NCI/ADR-RES ovarian
SNB-19 CNS = test system: SNB-19 CNS
786-0 renal = test system: 786-0 renal
UACC-62 melanoma = test system: UACC-62 melanoma
HOP-18 NSCLC = test system: HOP-18 NSCLC
P388 leukemia = test system: P388 leukemia
OVCAR-8 ovarian = test system: OVCAR-8 ovarian
RPMI-8226 leukemia = test system: RPMI-8226 leukemia
SNB-75 CNS = test system: SNB-75 CNS
CAKI-1 renal = test system: CAKI-1 renal
HL-60(TB) leukemia = test system: HL-60(TB) leukemia
SN12C renal = test system: SN12C renal
DMS 114 small cell lung = test system: DMS 114 small cell lung
XF 498 CNS = test system: XF 498 CNS
UACC-257 melanoma = test system: UACC-257 melanoma
IGROV1 ovarian = test system: IGROV1 ovarian
OVCAR-3 ovarian = test system: OVCAR-3 ovarian
NCI-H460 lung = test system: NCI-H460 lung
EKVX NSCLC = test system: EKVX NSCLC
HCT-116 colon = test system: HCT-116 colon
MOLT-4 leukemia = test system: MOLT-4 leukemia
NCI-H226 lung = test system: NCI-H226 lung
SF-539 CNS = test system: SF-539 CNS
NCI-H522 lung = test system: NCI-H522 lung
MCF7 breast = test system: MCF7 breast
KM12 colon = test system: KM12 colon

Question: With `CC1[C@@H]2[C@@H](C=C3C4CCC5Cc6nc7c(nc6C[C@@]5(C)C4C[C@H](O)[C@]32CO)CC2CCC3C4=C[C@H]5O[C@@]6(O[C@@](C)(CO)C[C@@H]6O)C(C)[C@@]5(O)[C@]4(C)[C@@H](O)CC3[C@]2(C)C7)O[C@]12CCC(C)(C)O2` (stereo partly drawn) as the compound, how does the GI50 (SK-MEL-2 melanoma) read?
Answer: 11.4 nM

Question: What about the TGI (SK-MEL-2 melanoma) of the same compound?
Answer: 455 nM and 284 nM

Question: And the GI50 (SK-OV-3 ovarian)?
Answer: < 0.365 nM

Question: What about the TGI (SK-OV-3 ovarian) of the same compound?
Answer: 99.1 nM and 22.4 nM

Question: What about the GI50 (LOX IMVI melanoma) of the same compound?
Answer: 17 nM and 7.1 nM

Question: And the TGI (LOX IMVI melanoma)?
Answer: > 3.65 µM

Question: What about the GI50 (A549 NSCLC) of the same compound?
Answer: 6.02 nM

Question: What about the TGI (A549 NSCLC) of the same compound?
Answer: 919 nM and > 3650 nM

Question: And the GI50 (HCC-2998 colon)?
Answer: 1340 nM

Question: What about the TGI (HCC-2998 colon) of the same compound?
Answer: 390 nM and > 3650 nM

Question: What about the GI50 (CCRF-CEM leukemia) of the same compound?
Answer: 0.474 nM

Question: And the GI50 (U251 CNS)?
Answer: < 0.365 nM

Question: What about the TGI (U251 CNS) of the same compound?
Answer: 66.4 nM

Question: And the GI50 (COLO 205 colon)?
Answer: 42.3 nM

Question: What about the TGI (COLO 205 colon) of the same compound?
Answer: 566 nM and 138 nM

Question: What about the TGI (P388/ADR leukemia) of the same compound?
Answer: > 3.65 µM

Question: What about the GI50 (UO-31 renal) of the same compound?
Answer: 117 nM

Question: And the TGI (UO-31 renal)?
Answer: 158 nM and 286 nM

Question: And the TGI (SN12K1 renal)?
Answer: > 3.65 µM

Question: What about the GI50 (RXF 393 renal) of the same compound?
Answer: < 0.365 nM

Question: And the GI50 (DLD-1 colon)?
Answer: 583 nM

Question: What about the TGI (DLD-1 colon) of the same compound?
Answer: > 3.65 µM

Question: What about the GI50 (SF-295 CNS) of the same compound?
Answer: < 0.365 nM

Question: What about the GI50 (M19-MEL melanoma) of the same compound?
Answer: 2130 nM

Question: What about the TGI (M19-MEL melanoma) of the same compound?
Answer: > 3.65 µM

Question: And the GI50 (DMS 273 small cell lung)?
Answer: < 0.365 nM

Question: And the TGI (M14 melanoma)?
Answer: 63.9 nM

Question: What about the GI50 (A498 renal) of the same compound?
Answer: 4.09 nM

Question: What about the TGI (A498 renal) of the same compound?
Answer: 84.1 nM and 165 nM

Question: And the GI50 (SW-620 colon)?
Answer: 7.9 nM

Question: What about the TGI (SW-620 colon) of the same compound?
Answer: 175 nM and 89.2 nM

Question: And the GI50 (MALME-3M melanoma)?
Answer: 9.82 nM

Question: And the TGI (MALME-3M melanoma)?
Answer: 722 nM and 183 nM

Question: What about the GI50 (KM20L2 colon) of the same compound?
Answer: 7.19 nM

Question: What about the TGI (KM20L2 colon) of the same compound?
Answer: 619 nM

Question: What about the TGI (SK-MEL-28 melanoma) of the same compound?
Answer: 238 nM

Question: And the TGI (SR leukemia)?
Answer: 229 nM

Question: What about the GI50 (HCT-15 colon) of the same compound?
Answer: 74.4 nM

Question: And the TGI (HCT-15 colon)?
Answer: 810 nM and 626 nM

Question: What about the GI50 (SK-MEL-5 melanoma) of the same compound?
Answer: 8.64 nM

Question: What about the TGI (SK-MEL-5 melanoma) of the same compound?
Answer: 134 nM and 160 nM

Question: And the TGI (HOP-92 NSCLC)?
Answer: 84 nM

Question: What about the TGI (NCI-H23 lung) of the same compound?
Answer: 574 nM

Question: What about the TGI (LXFL 529 NSCLC) of the same compound?
Answer: 71.3 nM

Question: What about the GI50 (SNB-78 CNS) of the same compound?
Answer: < 0.365 nM

Question: And the TGI (SNB-78 CNS)?
Answer: 340 nM and 642 nM

Question: And the GI50 (OVCAR-5 ovarian)?
Answer: 8.78 nM

Question: What about the TGI (OVCAR-5 ovarian) of the same compound?
Answer: 961 nM and 108 nM

Question: What about the GI50 (HOP-62 NSCLC) of the same compound?
Answer: < 0.365 nM

Question: What about the GI50 (SF-268 CNS) of the same compound?
Answer: 3.04 nM

Question: And the TGI (SF-268 CNS)?
Answer: 945 nM and 97.2 nM

Question: What about the GI50 (HT29 colon) of the same compound?
Answer: 3.02 nM

Question: And the TGI (HT29 colon)?
Answer: 440 nM and 414 nM

Question: What about the TGI (NCI/ADR-RES ovarian) of the same compound?
Answer: > 3.65 µM

Question: What about the GI50 (SNB-19 CNS) of the same compound?
Answer: 26.4 nM

Question: And the TGI (SNB-19 CNS)?
Answer: 603 nM and > 3650 nM

Question: And the TGI (786-0 renal)?
Answer: 534 nM

Question: And the GI50 (UACC-62 melanoma)?
Answer: 4.89 nM

Question: What about the TGI (UACC-62 melanoma) of the same compound?
Answer: 74.5 nM

Question: And the GI50 (HOP-18 NSCLC)?
Answer: 2080 nM

Question: What about the TGI (HOP-18 NSCLC) of the same compound?
Answer: > 3.65 µM

Question: And the TGI (P388 leukemia)?
Answer: > 3.65 µM

Question: And the GI50 (OVCAR-8 ovarian)?
Answer: > 3.65 µM

Question: And the TGI (OVCAR-8 ovarian)?
Answer: > 3.65 µM

Question: And the GI50 (RPMI-8226 leukemia)?
Answer: < 0.365 nM

Question: And the GI50 (SNB-75 CNS)?
Answer: 0.741 nM

Question: What about the TGI (SNB-75 CNS) of the same compound?
Answer: 15.9 nM and 13.4 nM

Question: And the GI50 (CAKI-1 renal)?
Answer: 40.6 nM

Question: What about the TGI (CAKI-1 renal) of the same compound?
Answer: > 3.65 µM

Question: And the TGI (HL-60(TB) leukemia)?
Answer: 496 nM

Question: And the GI50 (SN12C renal)?
Answer: > 3.65 µM

Question: What about the TGI (SN12C renal) of the same compound?
Answer: > 3.65 µM

Question: And the TGI (DMS 114 small cell lung)?
Answer: > 3.65 µM

Question: What about the GI50 (XF 498 CNS) of the same compound?
Answer: < 0.365 nM

Question: What about the TGI (UACC-257 melanoma) of the same compound?
Answer: 305 nM and 392 nM

Question: What about the GI50 (IGROV1 ovarian) of the same compound?
Answer: 4.9 nM

Question: And the TGI (IGROV1 ovarian)?
Answer: > 3.65 µM

Question: And the GI50 (OVCAR-3 ovarian)?
Answer: 1990 nM

Question: What about the TGI (OVCAR-3 ovarian) of the same compound?
Answer: > 3.65 µM

Question: And the GI50 (NCI-H460 lung)?
Answer: 0.713 nM

Question: And the TGI (NCI-H460 lung)?
Answer: 132 nM and 104 nM

Question: And the GI50 (EKVX NSCLC)?
Answer: 11.9 nM

Question: And the TGI (EKVX NSCLC)?
Answer: 749 nM and 2000 nM

Question: And the TGI (HCT-116 colon)?
Answer: 406 nM and 1420 nM

Question: What about the TGI (MOLT-4 leukemia) of the same compound?
Answer: 16.1 nM

Question: And the GI50 (NCI-H226 lung)?
Answer: 6.26 nM

Question: What about the TGI (NCI-H226 lung) of the same compound?
Answer: 543 nM and > 3650 nM

Question: What about the GI50 (SF-539 CNS) of the same compound?
Answer: 3.63 nM

Question: What about the GI50 (NCI-H522 lung) of the same compound?
Answer: 22.8 nM

Question: And the TGI (NCI-H522 lung)?
Answer: 429 nM

Question: What about the TGI (MCF7 breast) of the same compound?
Answer: 505 nM

Question: And the GI50 (KM12 colon)?
Answer: 170 nM

Question: What about the TGI (KM12 colon) of the same compound?
Answer: 611 nM and > 3650 nM
